Assay [1] concerns TNKS stabilisation in HeLa, HT1080, HTC75 cells.
Procedure: Cells were seeded, dosed and whole cell lysates were isolated and western blotted as described above. Primary antibodies included TNKS (1:1000, Santa Cruz Biotech, cat. no. SC8377).
In the next assay the target is TNKS1 (Homo sapiens, UniProt O95271). Kind of assay: TNKS1/PARP Biochemical Assay (TNKS1).
Assay [2] has as its system Axin1 protein levels in DLD1 cells. Kind of assay: Western Blotting for Direct and Downstream Targets of TNKS Inhibitors: Axin 1.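 Note: compound exposure 20 to 22 hours before lysis.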 Format: cell-based. On the procedure: DLD1 cells were assayed for the effect of putative Tankyrase1/2 inhibitors on TNKS1/2, Axin1/2 and β-catenin protein levels. […] Reduction of nuclear accumulation of β-catenin and ultimately, reduction of β-catenin/TCF/LEF transcriptional activation of Wnt target genes should correlate with loss of Wnt-luc reporter signal in the Wnt reporter assay.
DLD1 cells were seeded in a 6-well dish at 10000 cells/well in DMEM supplemented with 10% FBS. […] After washing in TBS-T, the membrane was probed with a species specific secondary antibody conjugated to HRP (1:5000, Pierce/ThermoFisher), washed again in TBS-T and reacted with chemiluminescent detection reagents (ECL, GE Healthcare, cat. no. RPN2109) followed by exposure to X-ray film (FujiFilm XR).

The subject of a further assay is DLD1 cells. Briefly: Long-Term Clonogenic Assay (DLD1 cells). Format: cell-based. How it is done:
Clonogenic Inhibition in DLD1 or HT55 Cells
In order to determine the efficacy of chronic dosing of putative TNKS inhibitors, long term clonogenic or ‘colony formation’ assays were carried out. This included the sparse seeding of cells in a 6-well dish followed by continuous dosing of cells over 12-14 days (depending on relative cell growth). Appropriate cell lines (DLD1 or HT55) were seeded at 500 cells/well in a 6-well dish in DMEM supplemented with FBS. […] Dosages were carried out in triplicate. Cell media containing compound or DMSO only was replenished every 48 hours. Termination of the assay included the fixation of cells with trichlororacetic acid (1 mL, 10% (v/v), Sigma Aldrich, cat. no. T6399) and incubation for 16 hours at 4° C. Fixed cells were then washed with water, allowed to dry and stained with sulforhodamine B solution (sulforhodamine B 0.05% (w/v), Sigma Aldrich cat. no. S1402, acetic acid 1% (v/v), Fisher Scientific, cat. no. A/0400/PB17)) for 12 hours at room temperature. The stain was then removed and the cells washed copiously with aqueous acetic acid (1% v/v) and allowed to dry.
The data was normalised to the DMSO control and was expressed as surviving fraction as a function of inhibitor dose.

The subject of assay [3] is Wnt activity in DLD1-Wnt-Luc cells. Kind of assay: Wnt-Luciferase Reporter Assay.
The mark [4] stands for this setting: read-out: Wnt IC50, DLD1-Wnt-Luc cells.

Where two headings read alike, the source gives them in different places. Where only a bound is given, the exact number is not on record here.

As to `Cc1cccc2c(=O)[nH]c(-c3ccc(C(=O)N(C)C4CCN(C)CC4)cc3)cc12` [IQ-100, N-Methyl-4-(5-methyl-1-oxo-1,2-dihydro-isoquinolin-3-yl)-N-(1-methyl-piperidin-4-yl)-benzamide], the “stabilize TNKS (Western blotting)” value in assay [1] is listed as “stabilize TNKS”. Also, on TNKS1, the 50% inhibitory concentration (IC50) was below 20 nM. For the same molecule, in assay [2], the “stabilize Axin1 (Western blotting)” value was “stabilize Axin1”.

For the molecule `Cc1cccc2c(=O)[nH]c(-c3ccc(CN4CCCCC4)cc3)cc12` [IQ-037], in assay [1], the “stabilize TNKS (Western blotting)” value is reported as “stabilize TNKS”. At TNKS1, the half-maximal inhibitory concentration (IC50) was below 50 nM. For the same molecule, the “stabilize Axin1 (Western blotting)” value in assay [2] was “stabilize Axin1”.

Take `CN1CCN(c2ccc(-c3cc4c(Cl)cccc4c(=O)[nH]3)cn2)CC1` [IQ-002-1]: in assay [1], the “stabilize TNKS (Western blotting)” value is on record as “stabilize TNKS”. The molecule further displayed an IC50 against TNKS1 below 50 nM. Besides, the “stabilize Axin1 (Western blotting)” value in assay [2] is “stabilize Axin1”. Moreover, in the assay on DLD1 cells, the “Clonogenic SF50 (DLD1)” value was below 2 µM.

For the molecule `COCCN1CCN(C(=O)c2ccc(-c3cc4c(C)cccc4c(=O)[nH]3)cc2)CC1` [IQ-102], the “stabilize TNKS (Western blotting)” value in assay [1] is listed as “stabilize TNKS”. The IC50 against TNKS1 was below 20 nM. The “stabilize Axin1 (Western blotting)” value in assay [2] is “stabilize Axin1”. Moreover, the “Clonogenic SF50 (DLD1)” value with DLD1 cells was below 2 µM.

Molecule `CN(C)C1CCN(c2ccc(-c3cc4c(Cl)cccc4c(=O)[nH]3)cn2)C1` (stereo not shown) [IQ-009] showed an IC50 at TNKS1 below 500 nM. Besides, the “Clonogenic SF50 (DLD1)” value in the assay on DLD1 cells was below 2 µM.

Consider `Cc1cc(F)cc2c(=O)[nH]c(-c3ccc(C(=O)N4CCN(C)CC4)cc3)cc12.O=CO` [IQ-190], for which the IC50 against TNKS1 is below 20 nM. For the same molecule, the “Clonogenic SF50 (DLD1)” value in the assay on DLD1 cells was below 2 µM.

At TNKS1, `CN(C)CCN1CCN(c2ccc(-c3cc4c(Cl)cccc4c(=O)[nH]3)cn2)CC1` [IQ-019] returned a concentration for half-maximal inhibition (IC50) below 50 nM. Also, in the assay on DLD1 cells, the “Clonogenic SF50 (DLD1)” value was below 2 µM.

For the molecule `Cc1cccc2c(=O)[nH]c(-c3ccc(N4CCN(C)CC4)nc3)cc12` [IQ-003], the “stabilize TNKS (Western blotting)” value in assay [1] is recorded as “stabilize TNKS”. The concentration for half-maximal inhibition (IC50) against TNKS1 was 21 nM; in assay [3] (read-out: Wnt IC50), 12 nM. Moreover, the “stabilize Axin1 (Western blotting)” value in assay [2] was “stabilize Axin1”. Also, the “Clonogenic SF50 (DLD1)” value with DLD1 cells is below 2 µM.

Turning to `O=c1[nH]c(-c2ccc(N3CCNCC3)nc2)cc2c(Cl)cccc12` [IQ-027], the “stabilize TNKS (Western blotting)” value in assay [1] was “stabilize TNKS”. This molecule had an IC50 against TNKS1 below 50 nM. Besides, the “stabilize Axin1 (Western blotting)” value in assay [2] is listed as “stabilize Axin1”.

Consider `CN1CCN(Cc2ccc(-c3cc4c(Cl)cccc4c(=O)[nH]3)cc2)CC1` [IQ-043], for which the 50% inhibitory concentration (IC50) on TNKS1 was below 500 nM. For the same molecule, in the assay on DLD1 cells, the “Clonogenic SF50 (DLD1)” value was below 2 µM.

Molecule `Cc1cccc2c(=O)[nH]c(-c3ccc(CN4CCN(C)C(=O)C4)cc3)cc12` [IQ-054] registered an IC50 at TNKS1 below 20 nM. In addition, the “Clonogenic SF50 (DLD1)” value with DLD1 cells is below 2 µM.

`Cc1cccc2c(=O)[nH]c(-c3ccc(OCCN(C)C)cc3)cc12` [IQ-130]: the “stabilize TNKS (Western blotting)” value in assay [1] is recorded as “stabilize TNKS”. Moreover, the values for the IC50 (on TNKS1; in assay [3] (read-out: Wnt IC50)) were 16 nM and 165 nM, respectively. Besides, the “stabilize Axin1 (Western blotting)” value in assay [2] is “stabilize Axin1”.

As to `Cc1cccc2c(=O)[nH]c(-c3ccc(CN4CCN(C(=O)NC(C)(C)C)CC4)cc3)cc12` [IQ-068, 4-[4-(5-methyl-1-oxo-1,2-dihydro-isoquinolin-3-yl)-benzyl]-piperazine-1-carboxylic acid tert-butylamide], the half-inhibitory concentration (IC50) at TNKS1 was below 50 nM. In addition, the “Clonogenic SF50 (DLD1)” value in the assay with DLD1 cells is below 2 µM.

The molecule `CC(=O)N1CCN(c2ccc(-c3cc4c(C)cccc4c(=O)[nH]3)cn2)CC1` [IQ-005] returned an IC50 against TNKS1 below 20 nM. Moreover, the “Clonogenic SF50 (DLD1)” value in the assay with DLD1 cells was below 2 µM.

Turning to `Cc1cccc2c(=O)[nH]c(-c3ccc(OCCN4CCOCC4)cc3)cc12` [IQ-133], in assay [1], the “stabilize TNKS (Western blotting)” value was “stabilize TNKS”. The same molecule showed an IC50 at TNKS1 below 500 nM. Further, the “stabilize Axin1 (Western blotting)” value in assay [2] is “stabilize Axin1”.

In the case of `Cc1cccc2c(=O)[nH]c(-c3ccc(N(C)C)cc3)cc12` [IQ-001], at TNKS1, the concentration for half-maximal inhibition (IC50) is below 20 nM. The “Clonogenic SF50 (DLD1)” value in the assay with DLD1 cells is below 2 µM.

Turning to `Cc1cccc2c(=O)[nH]c(-c3ccc(CN4C[C@@H]5C[C@H]4CN5)cc3)cc12` [IQ-086], the IC50 at TNKS1 was below 20 nM. In addition, the “Clonogenic SF50 (DLD1)” value in the assay with DLD1 cells is below 2 µM.

`CC(C)(C)OC(=O)N1CCN(Cc2ccc(-c3cc4c(Br)cccc4c(=O)[nH]3)cc2)CC1` [IQ-149, 4-[4-(5-Bromo-1-oxo-1,2-dihydro-isoquinolin-3-yl)-benzyl]-piperazine-1-carboxylic acid tert-butyl ester]: the half-inhibitory concentration (IC50) at TNKS1 is below 50 nM; in assay [3] (setting [4]), below 5000 nM. For the same molecule, the “Clonogenic SF50 (DLD1)” value in the assay with DLD1 cells is below 2 µM.

Take `Cc1cccc2c(=O)[nH]c(-c3ccc(CN4CCC(N(C)C)CC4)cc3)cc12` [IQ-053]: the “stabilize TNKS (Western blotting)” value in assay [1] is on record as “stabilize TNKS”.

Regarding `Cc1cccc2c(=O)[nH]c(-c3ccc(C(=O)N4CCC(N(C)C)CC4)cc3)cc12` [IQ-106], the concentration for half-maximal inhibition (IC50) against TNKS1 was below 50 nM. Besides, in the assay on DLD1 cells, the “Clonogenic SF50 (DLD1)” value was below 2 µM.

On TNKS1, `Cc1cccc2c(=O)[nH]c(-c3cnc(N4CCN(C)CC4)c(F)c3)cc12` [IQ-021] displayed an IC50 below 50 nM. The “Clonogenic SF50 (DLD1)” value in the assay on DLD1 cells is below 2 µM.

In the case of `CC(=O)N1CCN(c2ccc(-c3cc4c(C)cccc4c(=O)[nH]3)cc2)CC1` [IQ-017], the 50% inhibitory concentration (IC50) against TNKS1 is below 20 nM. Besides, in the assay with DLD1 cells, the “Clonogenic SF50 (DLD1)” value is below 2 µM.

On TNKS1, `Cc1cccc2c(=O)[nH]c(-c3ccc(CN4CCC(O)CC4)cc3)cc12` [IQ-074, 3-[4-(4-Hydroxy-piperidin-1-ylmethyl)-phenyl]-5-methyl-2H-isoquinolin-1-one] showed a 50% inhibitory concentration (IC50) below 50 nM. In addition, the “Clonogenic SF50 (DLD1)” value in the assay with DLD1 cells is below 2 µM.

Molecule `Cc1cccc2c(=O)[nH]c(-c3ccc(C(C)N4CCN(C)CC4)cc3)cc12` (stereo not shown) [IQ-048] had an IC50 against TNKS1 below 20 nM. The “Clonogenic SF50 (DLD1)” value in the assay with DLD1 cells is below 2 µM.

Take `Cc1cccc2c(=O)[nH]c(-c3ccc(CN4CCCC4)cc3)cc12` [IQ-036]: the “stabilize TNKS (Western blotting)” value in assay [1] is on record as “stabilize TNKS”. The same molecule had a half-inhibitory concentration (IC50) on TNKS1 below 50 nM. In addition, in assay [2], the “stabilize Axin1 (Western blotting)” value was “stabilize Axin1”.

On to `CNCCOc1ccc(-c2cc3c(C)cccc3c(=O)[nH]2)cc1` [IQ-127, 5-Methyl-3-[4-(2-methylamino-ethoxy)-phenyl]-2H-isoquinolin-1-one], for which, in assay [1], the “stabilize TNKS (Western blotting)” value was “stabilize TNKS”. For the same molecule, the IC50 against TNKS1 is below 50 nM. Moreover, the “stabilize Axin1 (Western blotting)” value in assay [2] is “stabilize Axin1”. Also, the “Clonogenic SF50 (DLD1)” value with DLD1 cells is below 2 µM.

As to `Cc1cccc2c(=O)[nH]c(-c3ccc(CN4CCN(C)CC4)cc3)cc12` [IQ-038], in assay [1], the “stabilize TNKS (Western blotting)” value is on record as “stabilize TNKS”. In addition, the “Clonogenic SF50 (DLD1)” value with DLD1 cells is below 2 µM.

With `CN(C)CCOc1ccc(-c2cc3c(F)cccc3c(=O)[nH]2)cc1` [IQ-129], the results for the 50% inhibitory concentration (IC50) (at TNKS1; in assay [3] (setting [4])) were below 50 nM and below 5000 nM, respectively. Also, the “Clonogenic SF50 (DLD1)” value with DLD1 cells is below 2 µM.
